Results: patent US20050080076A1 (Xanodyne Pharmacal, Inc., priority 2003, published 2005)
Read-outs that look alike come from different tables or passages of the source.

Tests used:
Serotonin 5-HT2A = Serotonin 5-HT2A (Homo sapiens, UniProt P28223); assay: Receptor binding, Serotonin 5-HT2A
Method: (§1) Receptor-ligand binding studies were performed as known to one skilled in the art. Compounds evaluated were LMP, the parent compound, the NDM LMP metabolite of LMP, and the sulfoxide metabolite of LMP. These studies verified receptor binding and affinity by the parent compound, as well as identified other potential receptors for the parent compound and its metabolites, and identified and verified receptors and receptor affinity for the metabolites.
(§2) Dopamine receptor affinity included binding to D1, D2, D3, D4, and D5 receptors. Serotonin receptor affinity included binding to 5-HT1A, 5-HT2A, 5-HT2B, 5-HT2, 5-HT5A, 5-HT6, and 5-HT7 receptors. Alpha adrenergic receptor affinity included binding to α1A, α1B, α1C, α2A, α2B, and α2C receptors. Muscarinic receptor affinity included binding to M1, M2, M3, M4, and M5 receptors. Binding to the histamine H1 receptor, the calcium ion channel receptor, and the sodium ion channel receptor were also evaluated. In each of the tables, the following abbreviations are used: LMP indicates the parent compound levomepromazine. NDM LMP indicates the N-desmethyl (N-desmethyl) metabolite. Sulfoxide indicates the sulfoxide metabolite. […] Ki (the inhibition constants of binding) indicate binding affinity.

Serotonin 5-HT1A = target: T1, Serotonin 5-HT1A (Homo sapiens, UniProt P08908); assay: Receptor binding, Serotonin 5-HT1A
T1 sequence (P08908 1-422): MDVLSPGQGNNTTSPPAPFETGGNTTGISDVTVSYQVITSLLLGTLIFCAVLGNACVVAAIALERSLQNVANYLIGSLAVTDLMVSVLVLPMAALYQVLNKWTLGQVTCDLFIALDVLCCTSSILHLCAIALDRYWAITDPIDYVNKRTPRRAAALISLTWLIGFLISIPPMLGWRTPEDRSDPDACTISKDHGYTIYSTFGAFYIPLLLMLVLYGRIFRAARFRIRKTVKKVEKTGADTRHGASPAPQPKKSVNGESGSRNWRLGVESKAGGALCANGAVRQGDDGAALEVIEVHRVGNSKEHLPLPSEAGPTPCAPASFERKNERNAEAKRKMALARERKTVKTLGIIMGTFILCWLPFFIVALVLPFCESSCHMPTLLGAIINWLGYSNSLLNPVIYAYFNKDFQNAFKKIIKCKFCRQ
Method: as §1, §2

Sodium Channel = assay: Receptor binding, Sodium Channel; parameters: key to Relative Affinity: ≧ indicates greater or equal affinity; = indicates about the same affinity; − indicates no affinity
Method: as §1, §2

Adrenergic α2B = target: T2, Adrenergic α2B (Homo sapiens, UniProt P18089); assay: Receptor binding, Adrenergic α2B
T2 sequence (P18089 1-450): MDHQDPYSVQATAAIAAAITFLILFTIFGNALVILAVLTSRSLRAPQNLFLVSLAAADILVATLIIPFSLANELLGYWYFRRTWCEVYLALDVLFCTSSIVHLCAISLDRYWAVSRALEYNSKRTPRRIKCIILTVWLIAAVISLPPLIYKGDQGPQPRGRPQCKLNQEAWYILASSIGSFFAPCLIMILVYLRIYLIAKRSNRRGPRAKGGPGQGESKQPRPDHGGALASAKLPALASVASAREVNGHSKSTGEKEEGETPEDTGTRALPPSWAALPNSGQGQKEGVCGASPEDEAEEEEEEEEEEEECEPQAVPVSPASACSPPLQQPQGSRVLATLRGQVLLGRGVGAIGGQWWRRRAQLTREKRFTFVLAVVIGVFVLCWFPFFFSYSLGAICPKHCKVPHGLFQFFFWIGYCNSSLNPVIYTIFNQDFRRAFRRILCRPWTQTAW
Method: as §1, §2

Adrenergic α2C = target: T3, Adrenergic α2C (Homo sapiens, UniProt P18825); assay: Receptor binding, Adrenergic α2C
T3 sequence (P18825 1-462): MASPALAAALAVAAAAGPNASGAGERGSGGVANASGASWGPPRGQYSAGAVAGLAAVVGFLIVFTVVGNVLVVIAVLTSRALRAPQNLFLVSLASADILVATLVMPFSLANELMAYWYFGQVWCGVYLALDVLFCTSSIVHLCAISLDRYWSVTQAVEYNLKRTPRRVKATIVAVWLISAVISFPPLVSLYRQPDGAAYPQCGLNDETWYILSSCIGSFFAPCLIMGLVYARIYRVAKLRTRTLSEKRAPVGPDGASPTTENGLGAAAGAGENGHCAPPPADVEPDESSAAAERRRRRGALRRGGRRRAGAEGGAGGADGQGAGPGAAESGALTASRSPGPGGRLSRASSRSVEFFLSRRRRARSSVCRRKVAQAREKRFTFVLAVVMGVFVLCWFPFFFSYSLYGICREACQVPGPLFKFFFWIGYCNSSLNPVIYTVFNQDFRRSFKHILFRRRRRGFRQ
Method: as §1, §2

Muscarinic M4 = target: T4, Muscarinic M4 (Homo sapiens, UniProt P08173); assay: Receptor binding, Muscarinic M4
T4 sequence (P08173 1-479): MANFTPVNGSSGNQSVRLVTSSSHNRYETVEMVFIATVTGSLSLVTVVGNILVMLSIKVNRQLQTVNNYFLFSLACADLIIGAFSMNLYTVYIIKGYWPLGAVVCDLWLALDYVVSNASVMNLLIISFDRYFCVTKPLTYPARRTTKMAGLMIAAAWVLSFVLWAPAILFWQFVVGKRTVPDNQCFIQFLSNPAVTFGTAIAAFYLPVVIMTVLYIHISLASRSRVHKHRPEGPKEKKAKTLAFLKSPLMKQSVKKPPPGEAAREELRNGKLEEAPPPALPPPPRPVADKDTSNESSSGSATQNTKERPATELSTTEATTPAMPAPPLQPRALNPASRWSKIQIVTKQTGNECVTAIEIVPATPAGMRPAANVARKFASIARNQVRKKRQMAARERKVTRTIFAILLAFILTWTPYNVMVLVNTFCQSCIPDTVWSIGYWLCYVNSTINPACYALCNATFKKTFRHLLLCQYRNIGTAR
Method: as §1, §2

Serotonin 5-HT2B = Serotonin 5-HT2B (Homo sapiens, UniProt P41595); assay: Receptor binding, Serotonin 5-HT2B
Serotonin 5-HT2B, sequence (P41595 whole entry): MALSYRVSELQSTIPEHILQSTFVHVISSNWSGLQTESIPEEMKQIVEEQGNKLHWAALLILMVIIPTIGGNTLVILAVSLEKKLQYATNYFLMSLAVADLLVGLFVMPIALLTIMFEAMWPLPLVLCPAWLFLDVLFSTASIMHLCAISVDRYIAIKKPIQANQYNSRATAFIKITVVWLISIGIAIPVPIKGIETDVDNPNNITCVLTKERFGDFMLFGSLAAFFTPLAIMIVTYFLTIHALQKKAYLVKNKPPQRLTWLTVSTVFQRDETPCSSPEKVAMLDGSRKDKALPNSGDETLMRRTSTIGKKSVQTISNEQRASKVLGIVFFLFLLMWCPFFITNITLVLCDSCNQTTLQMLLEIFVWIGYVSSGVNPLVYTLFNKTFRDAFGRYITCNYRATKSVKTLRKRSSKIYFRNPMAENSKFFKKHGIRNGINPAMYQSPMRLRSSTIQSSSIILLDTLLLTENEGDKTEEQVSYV
Method: as §1, §2

muscarinic receptors = assay: Receptor affinity summary, muscarinic receptors; format: binding; conditions: for binding affinity to muscarinic receptors (in words): all receptors; for Relative Affinity: Muscarinic
Method: as §1, §2

Calcium Channel = assay: Receptor binding, Calcium Channel
Method: as §1, §2

Dopamine D2 = Dopamine D2 (Homo sapiens, UniProt P14416); assay: Receptor binding, Dopamine D2
Dopamine D2, sequence (P14416 whole entry): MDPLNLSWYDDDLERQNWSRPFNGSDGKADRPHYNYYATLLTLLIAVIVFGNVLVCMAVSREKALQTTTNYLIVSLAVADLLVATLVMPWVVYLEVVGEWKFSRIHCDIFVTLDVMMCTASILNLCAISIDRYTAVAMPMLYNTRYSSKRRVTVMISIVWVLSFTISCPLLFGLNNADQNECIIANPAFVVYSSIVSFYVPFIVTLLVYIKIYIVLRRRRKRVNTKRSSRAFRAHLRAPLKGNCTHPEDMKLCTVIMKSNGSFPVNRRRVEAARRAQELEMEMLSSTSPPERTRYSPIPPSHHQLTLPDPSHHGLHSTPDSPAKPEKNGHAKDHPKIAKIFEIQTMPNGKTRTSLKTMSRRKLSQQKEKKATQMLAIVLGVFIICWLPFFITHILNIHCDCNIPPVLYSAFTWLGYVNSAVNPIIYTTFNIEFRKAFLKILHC
Method: as §1, §2

Serotonin 5-HT6 = Serotonin 5-HT6 (Homo sapiens, UniProt P50406); assay: Receptor binding, Serotonin 5-HT6
Serotonin 5-HT6, sequence (P50406 whole entry): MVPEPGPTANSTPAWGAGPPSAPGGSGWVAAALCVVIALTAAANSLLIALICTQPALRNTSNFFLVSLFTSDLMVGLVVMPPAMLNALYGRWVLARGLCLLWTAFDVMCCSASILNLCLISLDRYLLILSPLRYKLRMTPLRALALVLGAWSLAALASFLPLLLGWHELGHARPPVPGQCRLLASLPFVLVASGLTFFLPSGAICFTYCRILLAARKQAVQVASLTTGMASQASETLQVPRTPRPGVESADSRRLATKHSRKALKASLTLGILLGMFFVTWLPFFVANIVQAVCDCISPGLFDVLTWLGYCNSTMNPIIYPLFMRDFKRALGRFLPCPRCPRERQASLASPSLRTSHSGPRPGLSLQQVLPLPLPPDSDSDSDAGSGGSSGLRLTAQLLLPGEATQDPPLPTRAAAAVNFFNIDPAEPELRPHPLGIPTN
Method: as §1, §2

Serotonin 5-HT2A, sequence (P28223 whole entry): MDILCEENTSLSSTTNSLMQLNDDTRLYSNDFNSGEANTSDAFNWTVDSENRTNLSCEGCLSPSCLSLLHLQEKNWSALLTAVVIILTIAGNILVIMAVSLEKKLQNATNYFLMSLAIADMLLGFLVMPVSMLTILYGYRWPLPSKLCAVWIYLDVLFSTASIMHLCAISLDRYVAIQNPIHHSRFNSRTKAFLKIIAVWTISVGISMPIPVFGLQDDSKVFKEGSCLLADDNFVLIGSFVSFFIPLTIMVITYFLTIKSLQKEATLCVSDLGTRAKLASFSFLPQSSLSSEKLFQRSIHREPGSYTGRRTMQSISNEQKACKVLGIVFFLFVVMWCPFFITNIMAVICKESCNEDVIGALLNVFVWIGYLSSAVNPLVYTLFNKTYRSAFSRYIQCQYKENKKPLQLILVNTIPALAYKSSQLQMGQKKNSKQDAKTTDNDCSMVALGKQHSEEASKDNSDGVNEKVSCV

| Compound | Ki (Serotonin 5-HT2A) [nM] | Ki (Serotonin 5-HT1A) [nM] | Ki (Sodium Channel; read-out: Ki) [nM] | Ki (Adrenergic α2B) [nM] | Ki (Adrenergic α2C) [nM] | Ki (Muscarinic M4) [nM] | Ki (Serotonin 5-HT2B) [nM] | binding affinity to muscarinic receptors (in words) (muscarinic receptors) | Ki (Calcium Channel) [nM] | Ki (Dopamine D2) [nM] | Ki (Serotonin 5-HT6) [nM] | Relative Affinity (Sodium Channel) | Relative Affinity (muscarinic receptors) | Relative Affinity (Calcium Channel) | Ki (Sodium Channel) |
| --- | --- | --- | --- | --- | --- | --- | --- | --- | --- | --- | --- | --- | --- | --- | --- |
| COc1ccc2c(c1)N(C[C@H](C)CN(C)C)c1ccccc1S2 [LMP, Levomepromazine] | < 4 | 827 | 1090 | 25 | 77 | 34 | 19 | moderate-to-high affinities | 407 | 8 | 82 |  |  |  |  |
| CNCC(C)CN1c2ccccc2Sc2ccc(OC)cc21 (stereo not drawn) [NDM LMP, R(+) 2-methoxy-10-2-methyl-3-monomethylaminopropyl phenothiazine] | < 4 | 641 | 643 | 48 | 74 | 88 | 27 | moderate-to-high affinities | 49 | 17 | 98 | NDM LMP > LMP | LMP = NDM LMP > sulfoxide | NDM LMP > LMP > sulfoxide |  |
| COc1ccc2c(c1)N(C[C@H](C)CN(C)C)c1ccccc1[S+]2[O-] (stereo partly shown) [Sulfoxide, levomepromazine sulfoxide] | 410 | > 10000 | > 10000 | > 10000 | > 10000 | 318 | > 10000 | low affinity | 9090 | > 10000 | > 10000 | − | LMP = NDM LMP > sulfoxide | NDM LMP > LMP > sulfoxide | no affinity was detected |
